Results published in US7094754B2, “Anti-aging and wound healing compounds” (Kimberly-Clark Worldwide, Inc., priority 2001, dated 2006).

Experiments:
MMP-9 = molecular target: T1, MMP-9 (Homo sapiens, UniProt P14780); assay: Isothermal titration calorimetry with MMP-9; assay type: binding
T1 construct: Active MMP-9 enzyme was purchased from Calbiochem; purchased Calbiochem
Method: Isothermal titration calorimetry (ITC) was performed with a VP-ITC instrument from MicroCal, hIc. Titrations were carried out by injecting 5 μL of an inhibitor peptide solution (at concentration ranges from 0.5 mM to 2.0 mM) into the 1.4 mL stirred reaction cell. […] Titrations were conducted between 20° C. and 40° C. Typical experimental conditions for the titrations were a 10 second injection period followed by a 240 second delay between injections for a total of 40 injections. Blank titrations of inhibitor peptide into buffer were performed in order to correct for heats of dilution and mixing.
The independent set of multiple binding sites is the most common model for binding experiment evaluations. The analytical solution for the total heat is determined by (Freire et al., 1990):
[formula] where Q is the total heat, V is the cell volume, ΔH is the enthalpy, M is the macromolecule concentration (the binding partner in the cell), n is the binding stoichiometry, L is the ligand concentration (the binding partner in the syringe), and K is the association constant. Data were fit to this model using Origin version 5 (MicroCal, Inc.). Surface Plasmon Resonance
The peptide was dissolved in 20 mM cacodylate (pH 6.8), 20 mM NaCl at a final concentration of 1 mM. MMP-9 was dialyzed into the same buffer at a final concentration of 20 μM. […]

[1] = system: normal human dermal fibroblasts (NHDF); assay: NHDF migration assay (48-well chemotaxis chamber); assay type: cell-based
Method: Normal, human dermal fibroblasts (NHDF) were obtained from Biowhittaker, (Walkersville, Md.) and propagated in T75 flasks in FBM media (500 mL, Biowhittaker) containing insulin, hFGF-b, GA-1000, and fetal bovine serum (10 mL) for up to 12 passages. For the migration assay, NHDF were washed once with 10 mL of Hank's buffered saline solution (HBSS). Three milliliters of trypsin (0.25%) in EDTA were added to the T75 flask for no more than five minutes to remove NHDF from the flask. NHDF in trypsin solution were added to 7 mL of FBM with no supplements added. NHDF were centrifuged for 5 minutes, and the supernatant was removed. NHDF were resuspended in 10 mL of FBM for counting. NHDF were centrifuged for another 5 minutes, and the supernatant was removed. NHDF were resuspended at 1×10^6 cells per mL in FBM without supplements. It was important to use FBM media only in migration assays because the complete media contains fibroblast growth factor and serum, both of which will trigger migration of fibroblasts.
Peptides were synthesized and purified by the Microchemical Facility at Emory University or by SigmaGenesis. All peptides were analyzed by mass spectrometry after HPLC to assess purity. Approximately 0.5–2.0 milligrams of peptide were used to make fresh stock solutions (5 mg/mL in PBS) for each migration assay. The peptide stock solutions in PBS were used to make more dilute solutions (1 mg/mL, 100 μg/mL, 10 μg/mL, 1 μg/mL, 100 ng/mL, 10 ng/mL) in FBM (without supplements) for the migration assays.
Polyvinylpyrrolidone-free polycarbonate membranes with […] pores (Neuroprobe, Inc., Gaithersburg, Md.) were washed with 90% ethanol for 15 minutes and rinsed four times with deionized water. Membranes were then placed into a glass dish containing an aqueous solution of 5 μg/mL gelatin. The glass dish was placed in to a water bath at about 90° C. for one hour. Membranes were removed from the gelatin solution and were allowed to dry for one hour in the 37° C. incubator.
A 48-well chemotaxis chamber (Neuroprobe, Inc., Gaithersburg, Md.) (see FIG. 20) was used for the migration assays. Twenty-eight/μL of each test solution were added to the bottom wells of the chamber in quadruplicate. A gelatin-treated membrane was placed carefully on top of the bottom wells. The gasket and top part of chamber were then placed carefully on top of the membrane. The apparatus was tightened using six thumbscrews. A solution of NHDF containing an estimated cell density (2×10^5 cells per mL) was made by adding 320 μL of the 1×10^6 cells per mL solution to 1.28 mL of FBM (no supplements). Fifty microliters of the 2×10^5 cells per mL NHDF solution were added to the top part of each well in the chamber. The chamber was placed in the incubator at 37° C./5% CO2 for three hours. The chamber was removed, the thumbscrews were removed, and the chamber was turned upside down on a paper towel. […] The membrane was carefully removed. […] The membrane was fixed with methanol and stained using the Diff-Quik Staining Solutions I and II. The nuclei of NHDF are stained purple. The membrane was mounted on a glass slide using cedarwood immersion oil and a cover slip. […] The average number of migrated NHDF in the negative control was subtracted from the experimental (peptide) data and positive control data.

T1 sequence (P14780 107-707 limits assumed): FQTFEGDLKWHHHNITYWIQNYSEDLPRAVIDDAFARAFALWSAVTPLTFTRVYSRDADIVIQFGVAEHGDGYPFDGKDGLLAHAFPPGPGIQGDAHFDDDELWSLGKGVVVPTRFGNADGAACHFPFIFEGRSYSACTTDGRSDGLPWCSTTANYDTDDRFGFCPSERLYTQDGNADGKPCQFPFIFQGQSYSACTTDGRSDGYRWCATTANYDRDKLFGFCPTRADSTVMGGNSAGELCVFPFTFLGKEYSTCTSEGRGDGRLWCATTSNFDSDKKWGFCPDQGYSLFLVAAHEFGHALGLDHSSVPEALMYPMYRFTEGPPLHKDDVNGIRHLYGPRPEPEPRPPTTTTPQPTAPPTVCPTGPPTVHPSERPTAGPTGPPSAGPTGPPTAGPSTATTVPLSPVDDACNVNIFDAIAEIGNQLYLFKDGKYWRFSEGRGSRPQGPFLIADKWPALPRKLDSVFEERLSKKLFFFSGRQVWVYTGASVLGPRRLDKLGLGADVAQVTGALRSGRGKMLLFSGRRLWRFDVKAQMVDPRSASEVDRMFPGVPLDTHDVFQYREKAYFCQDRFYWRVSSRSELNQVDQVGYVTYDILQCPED

CC(C)[C@H](NC(=O)[C@H](CC(=O)O)NC(=O)[C@@H]1CCCN1C(=O)[C@H](CC(N)=O)NC(=O)CNC(=O)[C@H](CS)NC(=O)[C@H](CCCNC(=N)N)NC(=O)[C@@H]1CCCN1)C(=O)N[C@@H](C)C(=O)N[C@@H](CC(N)=O)C(=O)N[C@@H](Cc1ccc(O)cc1)C(=O)N[C@@H](CC(N)=O)C(=O)N[C@@H](Cc1ccccc1)C(=O)N[C@@H](Cc1ccccc1)C(=O)N1CCC[C@H]1C(=O)N[C@@H](CCCNC(=N)N)C(=O)N[C@@H](CCCCN)C(=O)N1CCC[C@H]1C(=O)N[C@@H](CCCCN)C(=O)O [19-mer]
Kd (MMP-9): 606 nM | Stoichiometry (MMP-9; ITC, 1 mM peptide into 20 μM MMP-9, 20 mM cacodylate (pH 6.8), 20 mM NaCl): 0.975 ± 0.02 | percent of migrated NHDF compared to plasma fibronectin positive control ([1]; 100 μg/mL peptide, three hours): 46%±3% | percent of migrated NHDF compared to plasma fibronectin positive control ([1]; 100 μg/mL peptide, three hours, listed as 19-mer peptide): 46±3% | percent of migrated NHDF compared to plasma fibronectin positive control ([1]; 1000 μg/mL peptide, three hours): 55%±3% | percent of migrated NHDF compared to plasma fibronectin positive control ([1]; 1000 μg/mL peptide, three hours, listed as 19-mer peptide): 55±3% | percent of migrated NHDF compared to plasma fibronectin positive control ([1]; concentrations below 100 μg/mL): about 20%
